{"source": "patent US20090155392A1", "about": "“Methods and Systems for Sublingual Guarana Administration” (priority 2007, published 2009)", "origin": "cited, not measured here", "key": {"[1]": {"settings": "in vivo"}, "[2]": {"settings": "versus other lithium salts (lithium carbonate, lithium citrate)"}}, "data": [{"smiles": "CS(C)(=O)=O", "note": "[MSM, Methylsulfonylmethane]", "values": [{"measurement": "homocysteine levels in blood", "setting": "[1]", "result": "statistically significant lower levels"}, {"measurement": "joint pain and stiffness", "setting": "[1]", "result": "significantly beneficial effect on joint pain and stiffness"}]}, {"smiles": "COc1cc(CNC(=O)CCCC/C=C/C(C)C)ccc1O", "note": "[capsaicin, Capsaicin]", "values": [{"measurement": "mean metabolic rate", "setting": "30 minutes and 60 minutes after taking the extract", "result": "significant increase"}, {"measurement": "subjects with reduced body fat", "setting": "two week period", "result": 70, "unit": "%"}]}, {"smiles": "O=C([O-])c1cc(=O)[nH]c(=O)[nH]1.[Li+]", "note": "[lithium orotate, Lithium orotate]", "values": [{"measurement": "bio-activity relative to other lithium salts", "setting": "[2]", "result": 20, "unit": "times"}]}]}
